Results published in patent US20180311342A1, “IMMUNOSTIMULATING AGENT” (AJINOMOTO CO., INC., priority 2017, published 2018).

Legend:
Assay type in all cases: in vivo, BALB/c mice
[1] = system: anti-OVA-specific IgG1 subclass antibody; assay: Adjuvant activity test: anti-OVA-specific IgG1 subclass antibody in serum of OVA-immunized mice (ELISA); conditions: after primary immunization, serum 2 weeks later; OVA 5 μg + compound 0.256 μmol in 5% αCD-added saline (Addavax mixed with saline at 1:1), dorsal-subcutaneous; compared to OVA single administration group
[2] = system: anti-OVA-specific IgG2a subclass antibody; assay: Adjuvant activity test: anti-OVA-specific IgG2a subclass antibody in serum of OVA-immunized mice (ELISA); conditions: after primary immunization, serum 2 weeks later; OVA 5 μg + compound 0.256 μmol in 5% αCD-added saline (Addavax mixed with saline at 1:1), dorsal-subcutaneous; compared to OVA single administration group
[3] = system: anti-OVA-specific IgG2a subclass antibody; assay: as above; conditions: after secondary immunization, serum 2 weeks later; OVA 5 μg + compound 0.256 μmol in 5% αCD-added saline (Addavax mixed with saline at 1:1), dorsal-subcutaneous; compared to OVA single administration group
Protocol: 8-Week-old female BALB/c mice were divided into groups (N=6), and each group was primarily immunized by dorsal-subcutaneous administration of (1) ovalbumin (OVA) (5 μg) dissolved in saline as an antigen (OVA single administration group), (2) OVA 5 μg and Addavax™ (mixed with saline at 1:1) dissolved in saline (Addavax™ administration group) as positive control adjuvant, (3) OVA 5 μg and SZ137 0.256 μmol dissolved or dispersed in 5% α-cyclodextrin (hereinafter to be simply referred to as αCD)-added saline (SZ137 administration group), (4) OVA (5 μg) and SZ138 (0.256 μmol) dissolved or dispersed in 5% αCD-added saline (SZ138 administration group), (5) OVA (5 μg) and SZ142 (0.256 μmol) dissolved or dispersed in 5% αCD-added saline (SZ142 administration group), (6) OVA (5 μg) and SZ144 (0.256 μmol) dissolved or dispersed in 5% αCD-added saline (SZ144 administration group), (7) OVA (5 μg) and SZ145 (0.256 μmol) dissolved or dispersed in 5% αCD-added saline (SZ145 administration group), (8) OVA (5 μg) and SZ146 (0.256 μmol) dissolved or dispersed in 5% αCD-added saline (SZ146 administration group), (9) OVA (5 μg) and SZ147 (0.256 μmol) dissolved or dispersed in 5% αCD-added saline (SZ147 administration group), (10) OVA (5 μg) and SZ148 (0.256 μmol) dissolved or dispersed in 5% αCD-added saline (SZ148 administration group), each per mouse. Two week later, the secondary immunization was carried out by dorsal-subcutaneous administration of solutions or dispersions similar to those of the above-mentioned (1)-(10) again. Two weeks from the secondary immunization, the whole blood was extracted under anesthesia, and the obtained serum sample was measured for anti-OVA-specific IgG1 subclass antibody, anti-OVA-specific IgG2a subclass antibody, and anti-OVA-specific IgE antibody.
The measurement method of the anti-OVA-specific IgG1 subclass antibody and anti-OVA-specific IgG2a subclass antibody in Experimental Example 1 and the following Experimental Examples 2-10 is as follows.
To a 96 well plate was added 5 μg/ml OVA at 100 µl/well, and the mixture was incubated at 4° C. overnight. After incubation, the mixture was washed three times with 200 μl of PBS-T (PBS (phosphate buffered saline)+0.05% (v/v) Tween 20) per well, and blocked with 100 μl of 5% FCS (fetal calf serum)/PBS solution per well at room temperature for 1-2 hr. Thereafter, the mixture was washed three times with PBS-T (200 μl/well), a diluted serum sample (100 l/well) or the same amount of 5% FCS/PBS solution as a control was added, and the mixture was incubated at 37° C. for 1 hr. To calculate concentration of the antibody, the standard of an anti-OVA-specific IgG1 subclass antibody diluted with 2% FCS/PBS solution was added at 100 ng/ml, 50 ng/ml, 25 ng/ml, 12.5 ng/ml, 6.25 ng/ml, 3.125 ng/ml, 1.56 ng/ml, 0.781 ng/ml, 0.391 ng/ml, 0.195 ng/ml, 0.098 ng/ml, 0 ng/ml, per 1 well. When an anti-OVA-specific IgG2a subclass antibody was measured, the standard of an anti-OVA-specific IgG2a subclass antibody was added at 50 ng/ml, 25 ng/ml, 12.5 ng/ml, 6.25 ng/ml, 3.125 ng/ml, 1.56 ng/ml, 0.781 ng/ml, 0.391 ng/ml, 0.195 ng/ml, 0.098 ng/ml, 0.049 ng/ml, 0 ng/ml, per 1 well. Thereafter, similar to the samples, the mixture was washed five times with PBS-T (200 μl/well), a diluted biotinylated anti-mouse IgG1 antibody and IgG2a antibody were added (100 μl/well), and the mixture was incubated at 37° C. for 45 min. Thereafter, the mixture was washed five times with PBS-T (200 μl/well), a diluted anti-biotin-HRP antibody was added (100 μl/well), and the mixture was incubated at 37° C. for another 30 min. Thereafter, the mixture was washed five times with PBS-T (200 μl/well), TMB substrate solution was added (100 μl/well), and the mixture was incubated at room temperature for 10-15 min. Thereafter, a reaction quenching liquid (2N sulfuric acid solution) was added (50 l/well) to discontinue a color developing reaction, and the absorbance (OD Value=450 nm) was measured by a microplate reader. […]

SMILES | anti-OVA-specific IgG1 subclass antibody production [1] | anti-OVA-specific IgG2a subclass antibody production [2] | anti-OVA-specific IgG2a subclass antibody production [3]
CCCCCCCCCCCCCCCC(=O)N[C@@H](CCCNC(=N)N)C(=O)NCCCCCCCC.Cl [SZ181, N-[(1S)-4-guanidino-1-(octylcarbamoyl)butyl]hexadecanamide hydrochloride] | a tendency toward increase was found | a tendency toward increase was found | showed a tendency to increase
CCCCCCCCCCCCCCCCCCCCCC(=O)N[C@@H](C)C(=O)NCCCCCCCCCCCC [SZ145, N-[(1S)-2-(dodecylamino)-1-methyl-2-oxo-ethyl]docosanamide] | – | – | showed a tendency to increase
CCCCCCCCCCCCCCCCNC(=O)N[C@@H](CCCCN)C(=O)NCCCCCCCC.Cl [SZ213, (2S)-6-amino-2-(hexadecylcarbamoylamino)-N-octyl-hexanamide hydrochloride] | a tendency toward increase | significant enhancement | significant enhancement
CCCCCCCCCCCCCCCCCCNC(=O)N[C@@H](CCCNC(=N)N)C(=O)NCCCCCCCCCCCC.Cl [SZ211, (2S)—N-dodecyl-5-guanidino-2-(octadecylcarbamoylamino)pentanamide hydrochloride] | significant enhancement | significant enhancement | significant enhancement
CCCCCCCCCCCCCCCCCC(=O)N[C@@H](CCCNC(=N)N)C(=O)NCCCCCCCC.Cl [SZ182, N-[(1S)-4-guanidino-1-(octylcarbamoyl)butyl]octadecanamide hydrochloride] | a tendency toward increase was found | a tendency toward increase was found | showed a tendency to increase
CCCCCCCCCCCCCCCCCCCCCC(=O)NCCc1ccncc1.Cl [SZ209, N-[2-(4-pyridyl)ethyl]docosanamide hydrochloride] | tended to increase | tended to increase | tended to increase
CCCCCCCCCCCCCCCCOC(=O)N[C@@H](CCCNC(=N)N)C(=O)NCCCCCCCC.Cl [SZ215, hexadecyl N-[(1S)-4-guanidino-1-(octylcarbamoyl)butyl]carbamate hydrochloride] | a tendency toward increase | significant enhancement | significant enhancement
CCCCCCCCCCCCCCCCCC(=O)N[C@@H](CCCCNC(=N)N)C(=O)NCCCCCC.Cl [SZ206, N-[(1S)-1-(hexylcarbamoyl)-5-guanidino-pentyl]octadecanamide hydrochloride] | significant enhancement | significant enhancement | significant enhancement
CCCCCCCCCCCCCCCCOC(=O)N[C@@H](CCCNC(=N)N)C(=O)NCCCCCC.Cl [SZ169, Hexadecyl N-[(1S)-4-guanidino-1-(hexylcarbamoyl)butyl]carbamate hydrochloride] | – | – | tended to increase
CCCCCCCCCCCCCCCCCC(=O)N[C@@H](CC(C)C)C(=O)NCCCCCCCCCCCC [SZ195, N-[(1S)-1-(dodecylcarbamoyl)-3-methyl-butyl]octadecanamide] | tended to increase | tended to increase | tended to increase
CCCCCCCCCCCCCCCCCCCCCC(=O)N[C@@H](CCCNC(=N)N)C(=O)N(CCCCCCC)CCCCCCC.Cl [SZ159, N-[(1S)-1-(diheptylcarbamoyl)-4-guanidino-butyl]docosanamide hydrochloride] | – | – | showed a tendency to increase
CCCCCCCCCCCCCCCCCC(=O)N[C@@H](CC(C)C)C(=O)NCCCCCCCC [SZ196, N-[(1S)-3-methyl-1-(octylcarbamoyl)butyl]octadecanamide] | tended to increase | tended to increase | tended to increase
CCCCCCCCCCCCCCCCCCCCCC(=O)NCCC(=O)NCCCCCCCCCCCC [SZ147, N-[3-(dodecylamino)-3-oxo-propyl]docosanamide] | – | – | showed a tendency to increase
CCCCCCCCCCCCNC(=O)N[C@@H](CCCNC(=N)N)C(=O)NCCCCCCCCCCCC.Cl [SZ212, (2S)—N-dodecyl-2-(dodecylcarbamoylamino)-5-guanidino-pentanamide hydrochloride] | significant enhancement | significant enhancement | significant enhancement
CCCCCCCCCCCCCCCCCCCCCC(=O)N[C@@H](CCCCNC(=N)N)C(=O)NCCCCCC.Cl [SZ170, N-[(1S)-5-guanidino-1-(hexylcarbamoyl)pentyl]docosanamide hydrochloride] | – | – | tended to increase
CCCCCCCCCCCCCCCCCCCCCC(=O)NC(C)(C)C(=O)NCCCCCCCCCCCC [SZ146, N-[2-(dodecylamino)-1,1-dimethyl-2-oxo-ethyl]docosanamide] | – | – | showed a tendency to increase
CCCCCCCCCCCCCCCCCCCCCC(=O)N[C@@H](CCCCN)C(=O)NCCCCCCCCCCCC.Cl [SZ160, N-[(1S)-5-amino-1-(dodecylcarbamoyl)pentyl]docosanamide hydrochloride] | – | – | showed a tendency to increase
CCCCCCCCCCCCCCCCOC(=O)N[C@@H](CCCNC(=N)N)C(=O)NCCCCCCCCCCCC.Cl [SZ150, Hexadecyl N-[(1S)-1-(dodecylcarbamoyl)-4-guanidino-butyl]carbamate hydrochloride] | – | – | significantly increased
CCCCCCCCCCCCCCCCCCCCCC(=O)N[C@@H](CCCC)C(=O)NCCCCCCCCCCCC [SZ155, N-[(1S)-1-(dodecylcarbamoyl)pentyl]docosanamide] | – | – | showed a tendency to increase
CCCCCCCCCCCCCCCCCCCCCC(=O)N1CCC(C(=O)NCCCCCCCCCCCC)CC1 [SZ156, 1-docosanoyl-N-dodecyl-piperidine-4-carboxamide] | – | – | showed a tendency to increase
